Results on 13 compounds are retold here after PubChem BioAssay AID256 (DTP/NCI, 2004).

“And” between values parts separate entries of the source, which are not always exact repeats. Equal entries are not always repeated. Toxic doses and inconclusive results are not listed.

The test system of the assay is CD2F1 mice, L1210 leukemia ip, survival T/C. In words: NCI In Vivo Anticancer Drug Screen. Data for tumor model L1210 Leukemia (intraperitoneal) in CD2F1 (CDF1) mice. As to conditions: higher = longer survival. A digest of the protocol:
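Vehicle-treated tumor-bearing mice served as controls (C) for compound-treated mice (T). Reported figure is T divided by C.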

The mark [1] stands for this setting: endpoint: mean survival time, dose: 400.0 mg/kg/injection, schedule: Q04DX003 (ip), vehicle: other.
Setting [2] is: endpoint: mean survival time, dose: 100.0 mg/kg/injection, schedule: Q04DX002 (ip), vehicle: saline with Tween-80.
[3] abbreviates: endpoint: mean survival time, dose: 200.0 mg/kg/injection, schedule: Q04DX002 (ip), vehicle: saline with Tween-80.
Setting [4] is: endpoint: mean survival time, dose: 400.0 mg/kg/injection, schedule: Q04DX002 (ip), vehicle: saline with Tween-80.

In the case of `FC1(F)C(I)=C(I)C1(F)F`, the T/C is 97 % of control (endpoint: mean survival time, dose: 75.0 mg/kg/injection, schedule: Q01DX001 (ip), vehicle: saline); 103 % of control (endpoint: mean survival time, dose: 150.0 mg/kg/injection, schedule: Q01DX001 (ip), vehicle: saline); 105 % of control (endpoint: mean survival time, dose: 300.0 mg/kg/injection, schedule: Q01DX001 (ip), vehicle: saline).
With `CCCCNCCC(=O)c1ccc(Cl)cc1`, the T/C is 98 % of control (endpoint: mean survival time, dose: 25.0 mg/kg/injection, schedule: Q04DX003 (ip), vehicle: saline with Tween-80) and 98 % of control (endpoint: mean survival time, dose: 50.0 mg/kg/injection, schedule: Q04DX003 (ip), vehicle: saline with Tween-80).
With `CCNCc1cc(Nc2nc(NC3CCC(N(C)C)CC3)c3ccccc3n2)ccc1OC` (stereo unspecified), the T/C is 97 % of control (endpoint: mean survival time, dose: 5.0 mg/kg/injection, schedule: Q01DX001 (ip), vehicle: saline); 96 % of control (endpoint: mean survival time, dose: 5.0 mg/kg/injection, schedule: Q01DX009 (ip), vehicle: saline); 92 % of control (endpoint: mean survival time, dose: 10.0 mg/kg/injection, schedule: Q01DX001 (ip), vehicle: saline); 96 % of control (endpoint: mean survival time, dose: 10.0 mg/kg/injection, schedule: Q01DX009 (ip), vehicle: saline); 97 % of control (endpoint: mean survival time, dose: 20.0 mg/kg/injection, schedule: Q01DX001 (ip), vehicle: saline); 107 % of control (endpoint: mean survival time, dose: 20.0 mg/kg/injection, schedule: Q01DX009 (ip), vehicle: saline).
Take `CCC(=O)Oc1ccc(/C=N/NC(N)=S)nc1`: the T/C reads like this: (endpoint: mean survival time, dose: 100.0 mg/kg/injection, schedule: Q04DX002 (ip), vehicle: other) 108 % of control; (endpoint: mean survival time, dose: 178.0 mg/kg/injection, schedule: Q01DX001 (ip), vehicle: other) 114 % of control; (endpoint: mean survival time, dose: 178.0 mg/kg/injection, schedule: Q04DX003 (ip), vehicle: other) 116 % of control; (endpoint: mean survival time, dose: 200.0 mg/kg/injection, schedule: Q04DX002 (ip), vehicle: other) 123 % of control; (endpoint: mean survival time, dose: 266.0 mg/kg/injection, schedule: Q01DX001 (ip), vehicle: other) 112 % of control; (endpoint: mean survival time, dose: 266.0 mg/kg/injection, schedule: Q04DX003 (ip), vehicle: other) 113 % of control. Further, the T/C is 118 % of control (endpoint: mean survival time, dose: 400.0 mg/kg/injection, schedule: Q01DX001 (ip), vehicle: other); 122 % of control under setting [1]; 110 % of control (endpoint: mean survival time, dose: 600.0 mg/kg/injection, schedule: Q01DX001 (ip), vehicle: other); 119 % of control (endpoint: mean survival time, dose: 600.0 mg/kg/injection, schedule: Q04DX003 (ip), vehicle: other); 122 % of control (endpoint: mean survival time, dose: 900.0 mg/kg/injection, schedule: Q04DX003 (ip), vehicle: other).
For `CNC(=O)OCC(COc1cc(C)ccc1C(C)C)OC(=O)NC` (stereo unspecified), the T/C is 86 % of control under setting [2], 93 % of control under setting [3] and 89 % of control under setting [4].
`O=c1nc(N2CCSCC2)ccn1C1OC(CO)C(O)C1O` (stereo unspecified): the T/C (endpoint: median survival time, dose: 12.5 mg/kg/injection, schedule: Q01DX005 (ip), vehicle: water) is 100 % of control; the T/C (endpoint: median survival time, dose: 25.0 mg/kg/injection, schedule: Q01DX005 (ip), vehicle: water) is 101 % of control; the T/C (endpoint: median survival time, dose: 50.0 mg/kg/injection, schedule: Q01DX005 (ip), vehicle: water) is 102 % of control; the T/C (endpoint: median survival time, dose: 100.0 mg/kg/injection, schedule: Q01DX005 (ip), vehicle: water) was 101 % of control; the T/C (endpoint: median survival time, dose: 200.0 mg/kg/injection, schedule: Q01DX005 (ip), vehicle: water) was 103 % of control.
Take `Cc1ccccc1N=C=S`: the T/C reads like this: (endpoint: mean survival time, dose: 12.5 mg/kg/injection, schedule: Q01DX009 (ip), vehicle: saline with Tween-80) 98 % of control; (endpoint: mean survival time, dose: 25.0 mg/kg/injection, schedule: Q01DX009 (ip), vehicle: saline with Tween-80) 96 % of control; (endpoint: mean survival time, dose: 50.0 mg/kg/injection, schedule: Q01DX009 (ip), vehicle: saline with Tween-80) 106 % of control.
Consider `O=P(O)(O)CP(=O)(O)O.[NH-]CC[NH-].[NH-]CC[NH-].[Pt+2].[Pt+2]`, for which the T/C runs as follows: (endpoint: mean survival time, dose: 3.13 mg/kg/injection, schedule: Q04DX003 (ip), vehicle: distilled water + Tween-80) 119 % of control; (endpoint: mean survival time, dose: 6.25 mg/kg/injection, schedule: Q04DX003 (ip), vehicle: distilled water + Tween-80) 92 % of control; (endpoint: mean survival time, dose: 12.5 mg/kg/injection, schedule: Q04DX003 (ip), vehicle: distilled water + Tween-80) 103 % of control; (endpoint: mean survival time, dose: 25.0 mg/kg/injection, schedule: Q04DX003 (ip), vehicle: distilled water + Tween-80) 109 % of control; (endpoint: mean survival time, dose: 50.0 mg/kg/injection, schedule: Q04DX003 (ip), vehicle: distilled water + Tween-80) 103 % of control; (endpoint: mean survival time, dose: 100.0 mg/kg/injection, schedule: Q04DX003 (ip), vehicle: distilled water + Tween-80) 109 % of control. The T/C (endpoint: mean survival time, dose: 200.0 mg/kg/injection, schedule: Q04DX003 (ip), vehicle: distilled water + Tween-80) was 90 % of control.
Take `CCSCCCO`: the T/C (endpoint: mean survival time, dose: 75.0 mg/kg/injection, schedule: Q04DX003 (ip), vehicle: saline) was 95 % of control; the T/C (endpoint: mean survival time, dose: 150.0 mg/kg/injection, schedule: Q04DX003 (ip), vehicle: saline) was 97 % of control; the T/C (endpoint: mean survival time, dose: 300.0 mg/kg/injection, schedule: Q04DX003 (ip), vehicle: saline) is 103 % of control.
On to `O=c1c2ncn(C3CC(O)C(O)C(CO)O3)c2ncn1C1CC(O)C(O)C(CO)O1` (stereo unspecified), for which the T/C was 108 % of control (endpoint: mean survival time, dose: 12.5 mg/kg/injection, schedule: Q01DX005 (ip), vehicle: water); 97 % of control (endpoint: mean survival time, dose: 25.0 mg/kg/injection, schedule: Q01DX005 (ip), vehicle: water); 100 % of control (endpoint: mean survival time, dose: 50.0 mg/kg/injection, schedule: Q01DX005 (ip), vehicle: water); 97 % of control (endpoint: mean survival time, dose: 100.0 mg/kg/injection, schedule: Q01DX005 (ip), vehicle: water); 97 % of control (endpoint: mean survival time, dose: 200.0 mg/kg/injection, schedule: Q01DX005 (ip), vehicle: water).
`COC(=O)C1(F)C(=O)NC(=O)NC1OC` (stereo unspecified): the T/C is 124 % of control (endpoint: median survival time, dose: 50.0 mg/kg/injection, schedule: Q01DX005 (ip), vehicle: Klucel (hydroxypropylcellulose) (HPC)); 124 % of control (endpoint: median survival time, dose: 50.0 mg/kg/injection, schedule: Q01DX005 (ip), vehicle: saline with Tween-80); 121 % of control (endpoint: median survival time, dose: 50.0 mg/kg/injection, schedule: Q01DX009 (ip), vehicle: Klucel (hydroxypropylcellulose) (HPC)); 153 % of control (endpoint: median survival time, dose: 72.0 mg/kg/injection, schedule: Q01DX009 (ip), vehicle: Klucel (hydroxypropylcellulose) (HPC)); 156 % of control (endpoint: median survival time, dose: 100.0 mg/kg/injection, schedule: Q01DX005 (ip), vehicle: saline with Tween-80); 158 % of control and 176 % of control (endpoint: median survival time, dose: 100.0 mg/kg/injection, schedule: Q01DX009 (ip), vehicle: Klucel (hydroxypropylcellulose) (HPC)). Further, the T/C by setting is: (endpoint: median survival time, dose: 120.0 mg/kg/injection, schedule: Q01DX009 (ip), vehicle: Klucel (hydroxypropylcellulose) (HPC)) 172 % of control; (endpoint: median survival time, dose: 200.0 mg/kg/injection, schedule: Q01DX005 (ip), vehicle: Klucel (hydroxypropylcellulose) (HPC)) 183 % of control; (endpoint: median survival time, dose: 200.0 mg/kg/injection, schedule: Q01DX005 (ip), vehicle: saline with Tween-80) 178 % of control; (endpoint: median survival time, dose: 200.0 mg/kg/injection, schedule: Q01DX009 (ip), vehicle: Klucel (hydroxypropylcellulose) (HPC)) 159 % of control and 197 % of control and 238 % of control; (endpoint: median survival time, dose: 400.0 mg/kg/injection, schedule: Q01DX005 (ip), vehicle: Klucel (hydroxypropylcellulose) (HPC)) 185 % of control; (endpoint: median survival time, dose: 400.0 mg/kg/injection, schedule: Q01DX005 (ip), vehicle: saline with Tween-80) 112 % of control. For the same compound, the T/C was 104 % of control (endpoint: median survival time, dose: 800.0 mg/kg/injection, schedule: Q01DX005 (ip), vehicle: Klucel (hydroxypropylcellulose) (HPC)); 109 % of control (endpoint: median survival time, dose: 800.0 mg/kg/injection, schedule: Q01DX005 (ip), vehicle: saline with Tween-80); 108 % of control (endpoint: median survival time, dose: 800.0 mg/kg/injection, schedule: Q01DX009 (ip), vehicle: Klucel (hydroxypropylcellulose) (HPC)).
Regarding `O=C(Nc1cccc(Cl)c1)C(c1ccccc1)c1ccccc1`, the T/C runs as follows: under setting [2], 95 % of control; under setting [3], 87 % of control; under setting [4], 91 % of control.
With `Clc1ccc(N=C/C=C/c2ccccc2)cc1`, the T/C (endpoint: mean survival time, dose: 25.0 mg/kg/injection, schedule: Q01DX009 (ip), vehicle: other) is 101 % of control; the T/C (endpoint: mean survival time, dose: 50.0 mg/kg/injection, schedule: Q01DX009 (ip), vehicle: other) is 97 % of control; the T/C (endpoint: mean survival time, dose: 100.0 mg/kg/injection, schedule: Q01DX009 (ip), vehicle: other) was 95 % of control; the T/C (endpoint: mean survival time, dose: 100.0 mg/kg/injection, schedule: Q04DX003 (ip), vehicle: other) was 87 % of control; the T/C under setting [1] is 89 % of control.
